Structures can show the parent of a compound that is named as a salt.
Assays:
[1] = tested on: calcium induced contraction of the isolated thoracic aorta in rats; experiment: Calcium antagonistic activity: relaxation of calcium induced contraction of isolated thoracic aorta; assay type: cell-based, rat (male Wistar strain); settings: spiral specimen of rat thoracic aorta, 80 mM potassium, 10 mM Ca++; relaxing activity; read-out: Minimum effective concentration
Procedure: Calcium antagonistic activity
Calcium antagonistic activity of the present compound was investigated by observing the effects on the calcium induced contraction of the isolated thoracic aorta in rats.
A piece of thoracic aorta was isolated from male Wistar strain rats weighing 350-450 g in order to prepare a spiral specimen. This specimen was suspended in a Krebs-Henseleit solution free from calcium. The contraction was evoked by an application of CaCl2 in the presence of 80 mM potassium so as to adjust the solution at a concentration of 10 mM Ca^++. The present compound to be tested was applied to the specimen which had been maximally contracted and was evaluated for its relaxing activity.

[2] = tested on: blood flow of the circumflex branch of left coronary artery (dog); experiment: Increasing activity of coronary blood flow in anesthetized dogs; assay type: in vivo, dog (mongrel); settings: Canis lupus familiaris, 0.1 mg/kg iv, read-out: Increase rate of coronary blood flow
Procedure: Increasing activity of coronary blood flow
Male and female mongrel dogs weighing 8 to 17.5 kg were anesthetized with intravenous administration of sodium pentobarbital at a dosage of 30 mg/kg. Under artificial respiration the chest was opened on the left side at the level of the fourth intercostal space and the heart was exposed. The circumflex branch of left coronary artery just below the junction of the anterior descending branch of left coronary artery was isolated in a width of approximately 1 cm, and a flow probe was placed around this artery in order to measure the blood flow of the circumflex branch of left coronary artery by means of an electromagnetic flow meter. During the tests, systemic blood pressure was monitored, and data obtained from tests where the mean blood presure was less than 65 mmHg were excluded from the final data. The pharmaceutical compound to be tested was dissolved in physiological saline or 50% ethanol/50% physiological saline and the thus obtained solution was intravenously administered at a dosage of 1 ml/10 kg through a polyethylene catheter which had been provided within the left femoral vein. The increasing activity of the blood flow of the circumflex branch of left coronary artery was evaluated and expressed in terms of increase rate of the blood flow after the administration of the compound to that of before the administration of the compound.

[3] = tested on: spontaneously hypertensive rats (SHR), average blood pressure; experiment: Antihypertensive activity in spontaneously hypertensive rats; assay type: in vivo, rat (SHR); settings: oral
Procedure: Antihypertensive activity
The compounds to be tested were administered orally to evaluate antihypertensive activity in spontaneously hypertensive rats (hereinafter SHR).
The average blood pressure of male SHR, 20 to 30 weeks old, was measured in a non-anestetised and non restraint state, through a catheter which had been chronically implanted into the abdominal aorta through the right fermoral artery, using an electromanometer. At the same time, the heart rate was measured by a tachometer triggered by the pulse pressure. The compound to be tested was suspended in a 1% tragacanth solution. After the concentration of the suspensions was adjusted in a volume of 5 ml/kg, the compound was administered orally to the SHR. The blood pressure and heart rate were measured 0.5, 1, 3, 6 and 24 hours after the administration.

[4] = Acute toxicity test (mouse, oral administration); settings: in vivo, male ICR mice, fasted 18 hours
Procedure: Tests were made using groups each comprising five male ICR strain mice weighing 30 to 35 g and being kept under a fast for 18 hours. The compound to be tested was suspended in a 1% tragacanth solution. After the concentration of the suspensions was adjusted in a volume of 40 ml/kg, the compound was administered orally to the mouse.

acetylcolinesterase = settings: Indian J. Pharm., 33, 80 (1971); cited from earlier work

For `CCN(CC)CCCn1c(Cc2cc(OC)ccc2OC)nc2ccccc2c1=O` [Compound 14], the minimal effective concentration [1] was 1 µM and the change in vivo at 0.1 mg/kg [2] was 42.7%.
For `COc1ccc(OC)c(Cc2nc3ccc(OC(C)C)cc3c(=O)n2CCCN(C)C)c1` [Compound 30, 2-(2,5-Dimethoxyphenylmethyl)-3-(3-dimetylaminopropyl)-6-isopropoxy-4(3H)-quinazolinone maleate], the minimal effective concentration [1] was 0.3 µM.
In the case of `COc1ccc(Cc2nc3ccc(OC(C)C)cc3c(=O)n2CCN(C)C)cc1` [Compound 50], the minimal effective concentration [1] is reported as 0.3 µM, the “Increase rate of average blood pressure after administration, after 1 hour” value (“Increase rate … after 1 hour” below) ([3]; 10 mg/kg) is reported as -17% and the “Increase rate of average blood pressure after administration, after 3 hours” value (shortened to “Increase rate … after 3 hours”) ([3]; 10 mg/kg) is reported as -7%. The LD50 [4] was 700 mg/kg.
With `CCC(C)Oc1ccc2nc(Cc3cc(OC)ccc3OC)n(CCN(C)C)c(=O)c2c1` (stereo not shown) [Compound 63] the minimal effective concentration [1] was 0.3 µM, the change in vivo at 0.1 mg/kg [2] was 77.3% and the LD50 [4] was 1200 mg/kg.
Compound `CCN(CC)CCn1c(Cc2cc(OC)ccc2OC)nc2ccccc2c1=O` [Compound 13] has a minimal effective concentration [1] of 3 µM, a change in vivo at 0.1 mg/kg [2] of 32.7% and an LD50 [4] of 700 mg/kg.
Work on `CCN(CC)CCn1c(Cc2ccc(OCc3ccccc3)cc2)nc2ccccc2c1=O` [Compound 20] yielded a minimal effective concentration [1] of 0.3 µM.
For `COc1ccc(OC)c(Cc2nc3ccc(OC(C)C)cc3c(=O)n2CCN(C)CCc2ccc(OC)c(OC)c2)c1` [Compound 102], the minimal effective concentration [1] was 0.03 µM, the change in vivo at 0.1 mg/kg [2] was 53.6% and the “Increase rate … after 1 hour” value ([3]; 10 mg/kg) was -11%. The “Increase rate … after 3 hours” value ([3]; 10 mg/kg) was -2% and the LD50 [4] was 1000 mg/kg.
With `CCC(C)Oc1ccc2nc(Cc3cc(OC)ccc3OC)n(CCCN(C)C)c(=O)c2c1` (stereo not shown) [Compound 64] the minimal effective concentration [1] was 0.3 µM and the change in vivo at 0.1 mg/kg [2] was 47.6%.
With `COc1ccc([C@@H]2Sc3ccccc3N(CCN(C)C)C(=O)[C@@H]2OC(C)=O)cc1` [diltiazem, reference compound] the minimal effective concentration [1] was 0.3 µM, the change in vivo at 0.1 mg/kg [2] was 91.2% and the “Increase rate … after 1 hour” value ([3]; 30 mg/kg) was -8%. The “Increase rate … after 3 hours” value ([3]; 30 mg/kg) was 0%, the “Increase rate … after 1 hour” value ([3]; 100 mg/kg) was -28% and the “Increase rate … after 3 hours” value ([3]; 100 mg/kg) was -14%. For the same compound, the LD50 [4] was 650 mg/kg.
With `COc1ccc(OC)c(Cc2nc3ccccc3c(=O)n2CCN(C)CCc2ccc(OC)c(OC)c2)c1` [Compound 93] the minimal effective concentration [1] was 0.03 µM.
`COc1ccc(OC)c(Cc2nc3ccccc3c(=O)n2CCN2CCCC2)c1` [Compound 15] showed a minimal effective concentration [1] of 0.3 µM and a change in vivo at 0.1 mg/kg [2] of 45.3%.
With `CCOc1ccc2nc(Cc3cc(OC)ccc3OC)n(CCN(C)CCc3ccc(OC)c(OC)c3)c(=O)c2c1` [Compound 121] the minimal effective concentration [1] was 0.03 µM.
For `COc1ccc(Cc2nc3cc(OC)c(OC(C)C)cc3c(=O)n2CCN(C)C)cc1` [Compound 82], the “Increase rate … after 1 hour” value ([3]; 10 mg/kg) was -24%, the “Increase rate … after 3 hours” value ([3]; 10 mg/kg) was -15% and the LD50 [4] was 750 mg/kg.
`COc1ccc(OC)c(Cc2nc3ccc(OC(C)C)cc3c(=O)n2CCCN(C)CCc2ccc(OC)c(OC)c2)c1` [Compound 103] gave a minimal effective concentration [1] of 0.1 µM.
In the case of `CCCCN(CCCC)CCCn1c(C)nc2ccc(Cl)cc2c1=O` [2-methyl-3-(3-dibutylaminopropyl)-6-chloro-4(3H)-quinazolinone], the “inhibitive activity of acetylcolinesterase” value (acetylcolinesterase) is given as “inhibitive activity of acetylcolinesterase”.
For `COc1ccc(OC)c(Cc2nc3ccc(OC(C)C)cc3c(=O)n2CCN(C)C)c1` [Compound 47], the minimal effective concentration [1] was 0.1 µM, the change in vivo at 0.1 mg/kg [2] was 95.4% and the “Increase rate … after 1 hour” value ([3]; 10 mg/kg) was -12%. The “Increase rate … after 3 hours” value ([3]; 10 mg/kg) was -3% and the LD50 [4] was 750 mg/kg.
For `COc1ccc(OC)c(Cc2nc3ccc(I)cc3c(=O)n2CCN(C)CCc2ccc(OC)c(OC)c2)c1` [Compound 116], the minimal effective concentration [1] was 0.03 µM.
Work on `COc1ccc(OC)c(Cc2nc3ccc(C)cc3c(=O)n2CCN(C)CCc2ccc(OC)c(OC)c2)c1` [Compound 114] yielded a minimal effective concentration [1] of 0.1 µM.
`CCN(CC)CCn1c(Cc2ccccc2OCc2ccccc2)nc2ccccc2c1=O` [Compound 19] showed a minimal effective concentration [1] of 0.3 µM.
`COc1ccc(OC)c(Cc2nc3ccc(C)cc3c(=O)n2CCN2CCCC2)c1` [Compound 31] showed a minimal effective concentration [1] of 1 µM, a change in vivo at 0.1 mg/kg [2] of 42.5% and an LD50 [4] of 1000 mg/kg.
For `CCN(CC)CCn1c(Cc2cc(OC)ccc2OC)nc2ccc(I)cc2c1=O` [Compound 26], the minimal effective concentration [1] was 1 µM.

— patent US4668682A, “2-Phenylalkyl-3-aminoalkyl-4(3H)-quinazolinone compound” (Mitsubishi Chemical Industries Limited, priority 1984, dated 1987)
